Laboratory results taken from ChEMBL document CHEMBL2074156, “Inhibition of P-glycoprotein activity and reversal of multidrug resistance in vitro by rosemary extract” (Eur J Cancer, 1999).

Target: ATP-dependent translocase ABCB1 (Homo sapiens, UniProt P08183)
Experiment: TP_TRANSPORTER: inhibition of Doxorubicin and Vinblastine efflux in drug-resistant MCF-7 cells
Assay type: functional, cell-based
Conditions: mcf7

Chain of ATP-dependent translocase ABCB1 (P08183 whole entry): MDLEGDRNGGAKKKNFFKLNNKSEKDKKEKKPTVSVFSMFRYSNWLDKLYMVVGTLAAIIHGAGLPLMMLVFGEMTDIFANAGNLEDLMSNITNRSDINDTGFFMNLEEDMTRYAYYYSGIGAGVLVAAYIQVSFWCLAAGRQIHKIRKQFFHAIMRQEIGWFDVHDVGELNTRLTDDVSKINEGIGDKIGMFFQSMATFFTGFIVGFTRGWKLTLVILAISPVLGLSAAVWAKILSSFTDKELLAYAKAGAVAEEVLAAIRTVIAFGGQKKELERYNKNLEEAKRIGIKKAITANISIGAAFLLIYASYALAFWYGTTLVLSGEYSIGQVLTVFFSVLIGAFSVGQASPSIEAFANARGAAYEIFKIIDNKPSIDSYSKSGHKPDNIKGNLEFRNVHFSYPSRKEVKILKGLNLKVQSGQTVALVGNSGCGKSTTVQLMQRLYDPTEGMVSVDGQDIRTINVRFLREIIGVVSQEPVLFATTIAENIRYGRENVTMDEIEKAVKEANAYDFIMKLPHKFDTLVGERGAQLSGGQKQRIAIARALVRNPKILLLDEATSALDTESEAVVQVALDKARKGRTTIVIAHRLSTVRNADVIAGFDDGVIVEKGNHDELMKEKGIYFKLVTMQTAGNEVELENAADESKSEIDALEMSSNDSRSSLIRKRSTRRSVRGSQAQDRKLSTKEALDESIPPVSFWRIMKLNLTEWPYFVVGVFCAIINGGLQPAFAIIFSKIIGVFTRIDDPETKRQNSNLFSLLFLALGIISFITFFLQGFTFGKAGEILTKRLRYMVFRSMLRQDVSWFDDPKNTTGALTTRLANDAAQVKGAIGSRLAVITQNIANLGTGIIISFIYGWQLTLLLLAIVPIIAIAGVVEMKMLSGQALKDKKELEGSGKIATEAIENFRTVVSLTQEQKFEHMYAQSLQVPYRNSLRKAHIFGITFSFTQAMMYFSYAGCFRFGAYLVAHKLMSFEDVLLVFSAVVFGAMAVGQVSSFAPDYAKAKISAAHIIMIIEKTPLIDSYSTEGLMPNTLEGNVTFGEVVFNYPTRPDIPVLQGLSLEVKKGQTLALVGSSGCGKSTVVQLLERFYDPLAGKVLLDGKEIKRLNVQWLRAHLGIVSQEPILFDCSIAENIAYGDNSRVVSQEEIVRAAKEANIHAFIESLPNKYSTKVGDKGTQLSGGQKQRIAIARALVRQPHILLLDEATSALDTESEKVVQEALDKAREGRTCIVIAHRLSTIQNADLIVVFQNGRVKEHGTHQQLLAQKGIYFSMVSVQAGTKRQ

ROSEMARY EXTRACT
Activity: inhibitor [+]
